# Experimental data: paper PMC11089505, “Structural Elucidation and Antiviral Activity of Covalent Cathepsin L Inhibitors” (Journal of Medicinal Chemistry, 2024)
# pEC50, pIC50, pKi: −log10 of the molar value. Values joined by “and” are separate entries in the source; they are usually repeats but may differ in a detail not shown here. Equal entries are not always repeated. Where two headings read alike, the source gives them in different places. Square brackets hold non-standard residues; d marks the D form. Peptide text beside a SMILES is read from it. Nle = CCCC[C@H](N)C(=O)O
# What was measured:
# [1] = tested on: SARS-CoV-2-GFP in Vero E6 cells; assay: microbe, parasite or virus in culture; type: cell-based
# SARS-CoV-2 Mpro = SARS-CoV-2 Mpro (Severe acute respiratory syndrome coronavirus 2, UniProt P0DTD1); type: binding; details: 2:1 compound to protein
# CatL [2] = target: T1, CatL (Homo sapiens, UniProt P07711, T223A); assay: CatL inhibition assay (Ki), substrate Z-RR-AMC; type: biochemical
# T1 construct: made in house; host or cells: Komagataella pastoris strain GS115
# T1 sequence (P07711 114-333 T223A): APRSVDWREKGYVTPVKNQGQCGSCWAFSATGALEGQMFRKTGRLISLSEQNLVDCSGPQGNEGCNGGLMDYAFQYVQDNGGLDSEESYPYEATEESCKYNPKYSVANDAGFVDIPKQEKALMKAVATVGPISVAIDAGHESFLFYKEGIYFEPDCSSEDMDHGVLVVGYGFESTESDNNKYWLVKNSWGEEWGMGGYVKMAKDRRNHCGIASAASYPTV
# Method: (§1) Experiments were performed in a solution of 50 mM sodium acetate, pH 4.0, 50 mM NaCl, 0.1% PEG 6000, and 5 mM DTT. Distinct assays with epoxide inhibitors at pH 6.0 were performed in 50 mM sodium phosphate buffer, 50 mM NaCl, 5 mM DTT, 0.1% PEG 6000, adjusted to pH 6.0.
# (§2) M1000 pro plate reader (Tecan), the fluorescent peptide substrate Z-RR-AMC, and excitation and emission wavelengths of 370 and 460 nm, respectively.
# (§3) At first, the inhibitor concentration span was optimized for each inhibitor and the assay buffer. For this initial screening, CatL (5 nM) was mixed with different concentrations of inhibitors (1 nM–50 μM) to determine the range of their inhibition. […] Reaction data were fitted to the […] in GraphPad Prism 9 software: Y = bottom + (top – bottom)/(1 + 10^∧((log IC50 – X) × HillSlope)); X is the log of dose or concentration, Y is the response (fluorescence signal), decreasing as X increases, top and bottom are the plateaus in the same units as Y, log IC50 same log units as X, HillSlope is the slope factor or called the Hill slope.
# CatL [3] = details: cited from earlier work
# CatL [4] = target: T1, CatL; assay: NanoDSF, thermal stability of CatL; type: binding; details: for 2:1, Tm average (CatL): 2:1 compound to protein; for 20:1, Tm average (CatL): 20:1 compound to protein
# CatL [5] = target: T1, CatL; assay: CatL inactivation assay comparing epoxides at pH 6 and pH 4; type: biochemical
# Method: as §1, §2, §3
# Figure S7. Inactivation of CatL.
# (1 picture or pasted object on this page, not shown here)
# [6] = Cell viability assay (CellTiter-Blue); details: African green monkey
# in vitro = details: African green monkey
# [7] = Severe acute respiratory syndrome coronavirus 2, Vero C1008, 24 h, read-out: EC50 (after 24 h)
# [8] = Severe acute respiratory syndrome coronavirus 2, Vero C1008, 48 h, read-out: EC50 (48 h)
# [9] = Severe acute respiratory syndrome coronavirus 2, Vero C1008, 48 h, read-out: EC50 (after 48 h)
smiles,measurement,setting,value
"CCCC[C@@H](C=O)NC(=O)[C@H](CC(C)C)NC(=O)[C@H](CC(C)C)NC(C)=O [MG-101, Acetyl-Leu-Leu-Nle-aldehyde] (Ac-Leu-Leu-[Nle]-aldehyde)",pEC50,[1]; [7],8.36
same,pEC50,[1]; [8],> 6.30
same,pEC50,[1]; [9],6.70
same,"2:1, Tm average (Mpro)",SARS-CoV-2 Mpro,60.4 °C
same,pKi,CatL [2]; read-out: Ki,10.19
same,remaining activity at 69 pM,"CatL [2]; read-out: Residual activity (Vi/V0), MG-101 0.069 nM",91.8%
same,remaining activity at 99 pM,"CatL [2]; read-out: Residual activity (Vi/V0), MG-101 0.099 nM",86.4%
same,remaining activity at 0.000141 µM,"CatL [2]; read-out: Residual activity (Vi/V0), MG-101 0.141 nM",80.3%
same,remaining activity at 0.000202 µM,"CatL [2]; read-out: Residual activity (Vi/V0), MG-101 0.202 nM",78.5%
same,remaining activity at 0.000288 µM,"CatL [2]; read-out: Residual activity (Vi/V0), MG-101 0.288 nM",70.1%
same,remaining activity at 0.000412 µM,"CatL [2]; read-out: Residual activity (Vi/V0), MG-101 0.412 nM",58.3%
same,remaining activity at 0.000588 µM,"CatL [2]; read-out: Residual activity (Vi/V0), MG-101 0.588 nM",43.3%
same,pKi,CatL [3]; read-out: Ki,9.30
"CC[C@H](C)[C@H](NS(=O)(=O)c1cccc2ccccc12)C(=O)N[C@H](C=O)Cc1c[nH]c2ccccc12 [CLI-IV, 1-Naphthalenesulfonyl-Ile-Trp-aldehyde]",pEC50,"[1]; Severe acute respiratory syndrome coronavirus 2, Vero C1008, 24 h, read-out: EC50 (24 h)",8.14
same,pEC50,[1]; [7],8.14
same,pEC50,[1]; [8],> 6.30
same,pEC50,[1]; [9],6.39
same,pEC50,[1]; read-out: EC50 (24 h),> 8.00
same,"2:1, Tm average (Mpro)",SARS-CoV-2 Mpro,54.6 °C
same,remaining activity at 0.00028 µM,"CatL [2]; CLI-IV 0.280 nM, read-out: Residual activity (Vi/V0)",92.4%
same,remaining activity at 0.0004 µM,"CatL [2]; CLI-IV 0.400 nM, read-out: Residual activity (Vi/V0)",94.2%
same,remaining activity at 0.00058 µM,"CatL [2]; CLI-IV 0.580 nM, read-out: Residual activity (Vi/V0)",89.3%
same,remaining activity at 0.00082 µM,"CatL [2]; CLI-IV 0.820 nM, read-out: Residual activity (Vi/V0)",92.1%
same,remaining activity at 0.00168 µM,"CatL [2]; CLI-IV 1.680 nM, read-out: Residual activity (Vi/V0)",78.4%
same,remaining activity at 0.0024 µM,"CatL [2]; CLI-IV 2.400 nM, read-out: Residual activity (Vi/V0)",60.1%
same,remaining activity at 0.00343 µM,"CatL [2]; CLI-IV 3.430 nM, read-out: Residual activity (Vi/V0)",40.4%
same,remaining activity at 0.007 µM,"CatL [2]; CLI-IV 7.000 nM, read-out: Residual activity (Vi/V0)",11%
same,remaining activity at 0.01 µM,"CatL [2]; CLI-IV 10.000 nM, read-out: Residual activity (Vi/V0)",5.5%
same,pIC50,"CatL [3]; Table S1, SI reference list",8.72
"CN(C)C(=O)C(Cc1ccccc1)NC(=O)[C@H]1O[C@@H]1C(=O)NCCc1ccccn1 (stereo partly drawn) [CLIK148, N-(L-3-trans-(2-pyridin-2-yl-ethylcarbamoyl)-oxirane-2-carbonyl)-L-Phe-dimethylamide]",pEC50,[1]; [7],6.55
same,pEC50,[1]; [9],5.56
same,"ΔTm (for CatL), 2:1 compound to protein mixing ratio","CatL [4]; 5 µM CatL, pH 5.0, 2% DMSO, 2:1","13,8 ± 0,1 °C and 13.8 °C"
same,"ΔTm (for CatL), 20:1 compound to protein mixing ratio","CatL [4]; 5 µM CatL, pH 5.0, 2% DMSO, 20:1","13,9 ± 0,2 °C and 13.9 °C"
same,"2:1, Tm average (CatL)",CatL [4],76.9 °C
same,"20:1, Tm average (CatL)",CatL [4],77 °C
same,"ΔTm [K] for CatL, 2:1 ratio","CatL [4]; Table S1, 2:1 ratio",13.8 ± 0.1 K
same,"2:1, Tm average (Mpro)",SARS-CoV-2 Mpro,54.8 °C
same,Inactivation Rate,"CatL [5]; CLIK148, pH 4, 0.44 µM (440 nM)",0.0004006 per second and 0.0003231 per second and 0.0004659 per second
same,Inactivation Rate,"CatL [5]; CLIK148, pH 4, 0.99 µM (990 nM)",0.0009097 per second and 0.0007894 per second and 0.0009283 per second
same,Inactivation Rate,"CatL [5]; CLIK148, pH 4, 1.48 µM (1480 nM)",0.00137 per second and 0.001226 per second and 0.001313 per second
same,Inactivation Rate,"CatL [5]; CLIK148, pH 4, 2.22 µM (2220 nM)",0.001929 per second and 0.00189 per second and 0.001923 per second
same,Inactivation Rate,"CatL [5]; CLIK148, pH 4, 3.33 µM (3330 nM)",0.00288 per second and 0.002823 per second and 0.002796 per second
same,Inactivation Rate,"CatL [5]; CLIK148, pH 4, 5.00 µM (5000 nM)",0.004395 per second and 0.004358 per second and 0.004463 per second
same,Inactivation Rate,"CatL [5]; CLIK148, pH 6, 0.44 µM (440 nM)",0.000984 per second and 0.001005 per second and 0.00104 per second
same,Inactivation Rate,"CatL [5]; CLIK148, pH 6, 0.66 µM (660 nM)",0.001629 per second and 0.001484 per second and 0.001519 per second
same,Inactivation Rate,"CatL [5]; CLIK148, pH 6, 0.99 µM (990 nM)",0.002031 per second and 0.002049 per second and 0.002115 per second
same,Inactivation Rate,"CatL [5]; CLIK148, pH 6, 1.48 µM (1480 nM)",0.002988 per second and 0.003179 per second and 0.003258 per second
same,Inactivation Rate,"CatL [5]; CLIK148, pH 6, 2.22 µM (2220 nM)",0.004844 per second and 0.004638 per second and 0.004732 per second
same,Inactivation Rate,"CatL [5]; CLIK148, pH 6, 3.33 µM (3330 nM)",0.00752 per second and 0.006254 per second and 0.007241 per second
same,Inactivation Rate,"CatL [5]; CLIK148, pH 6, 5.00 µM (5000 nM)",0.01516 per second and 0.01256 per second and 0.01191 per second
same,"viability at 48 h, 1e-05 µM",[6],99.3%
same,"viability at 48 h, 0.0001 µM",[6],100%
same,"viability at 48 h, 0.001 µM",[6],98%
same,"viability at 48 h, 0.01 µM",[6],101%
same,"viability at 48 h, 0.1 µM",[6],98.3%
same,"viability at 48 h, 1 µM",[6],104%
same,"viability at 48 h, 10 µM",[6],110%
CCCC[C@@H](C=O)NC(=O)[C@H](CC(C)C)NC(=O)OCc1ccccc1 [Calpeptin],"2:1, Tm average (CatL)",CatL [4],81.8 °C
same,"20:1, Tm average (CatL)",CatL [4],82 °C
same,pKi,CatL [3]; read-out: Ki of CatL inhibition,9.89
same,"viability at 48 h, 1e-05 µM",in vitro,100%
same,"viability at 48 h, 0.0001 µM",in vitro,98.4%
same,"viability at 48 h, 0.001 µM",in vitro,99.3%
same,"viability at 48 h, 0.01 µM",in vitro,97.9%
same,"viability at 48 h, 0.1 µM",in vitro,101%
same,"viability at 48 h, 1 µM",in vitro,101%
same,"viability at 48 h, 10 µM",in vitro,105%
